From ChEMBL document CHEMBL4334449, “Jorunnamycin A from Xestospongia sp. Suppresses Epithelial to Mesenchymal Transition and Sensitizes Anoikis in Human Lung Cancer Cells” (J Nat Prod, 2019)
Active and inactive are the calls of the source. The rule behind the calls is not given here.

Key:
[1] = system: NCI-H23; experiment: Induction of anoikis in human H23 cells harboring with p53 mutant under detachment conditions assessed as effect on Bax level at 0.05 to 0.5 uM after 12 hrs by Western blot analysis; format: functional, cell-based
[2] = system: NCI-H460; experiment: Antiproliferative activity against human H460 cells assessed as reduction in cell viability at 0.1 to 0.5 uM after at 72 hrs by crystal violet staining assay; format: functional, cell-based
[3] = system: NCI-H460; experiment: Induction of anoikis in human H460 cells under detachment conditions assessed as increase in Bax level at 0.05 to 0.5 uM after 12 hrs by Western blot analysis; format: functional, cell-based
[4] = system: NCI-H460; experiment: Induction of anoikis in human H460 cells under detachment conditions assessed as decrease in MCL-1 level at 0.05 to 0.5 uM after 12 hrs by Western blot analysis; format: functional, cell-based
[5] = system: NCI-H460; experiment: Induction of anoikis in human H460 cells under detachment conditions assessed as fold change at 0.5 uM after 24 hrs by Annexin V-FITC/propidium iodide staining-based flow cytometric analysis; format: functional
[6] = species on record: Homo sapiens; experiment: Inhibition of ERK phosphorylation in human H460 cells under detachment conditions at 0.05 to 0.5 uM after 12 hrs by Western blot analysis; format: cell-based
[7] = system: NCI-H23; experiment: Inhibition of epithelial-mesenchymal transition in human H23 cells harboring with p53 mutant under detachment conditions assessed as decrease in snail protein level 0.05 to 0.5 uM after 12 hrs by Western blot analysis; format: functional, cell-based
[8] = system: NCI-H292; experiment: Antiproliferative activity against human NCI-H292 cells under detachment conditions assessed as reduction in cell viability at 0.05 to 0.5 uM up to 24 hrs by XTT assay; format: functional, cell-based
[9] = system: NCI-H292; experiment: Inhibition of colony formation in human NCI-H292 cells under detachment conditions assessed as reduction in size of colonies at 0.1 to 0.5 uM after 14 days by microscopic method; format: functional, cell-based
[10] = system: NCI-H460; experiment: Effect on total ERK protein level in human H460 cells under detachment conditions at 0.05 to 0.5 uM after 12 hrs by Western blot analysis; format: ADME, cell-based; details: nci-h460, 12 h
[11] = system: NCI-H460; experiment: Induction of apoptosis in human H460 cells under detachment conditions assessed as late apoptotic cells at 0.5 uM after 24 hrs by Annexin V-FITC/propidium iodide staining-based flow cytometric analysis (reference value: 15.44%); format: functional
[12] = system: NCI-H23; experiment: Induction of anoikis in human H23 cells harboring with p53 mutant under detachment conditions assessed as decrease in BCL-2 level at 0.05 to 0.5 uM after 12 hrs by Western blot analysis; format: functional, cell-based
[13] = system: NCI-H460; experiment: Induction of apoptosis in human H460 cells assessed as accumulation of necrotic cells at 0.05 to 1 uM after 24 hrs by Hoechst 33342/propidium iodide staining based fluorescent microscopic method; format: functional, cell-based
[14] = system: NCI-H460; experiment: Induction of apoptosis in human H460 cells under detachment conditions assessed as viable cells at 0.5 uM after 24 hrs by Annexin V-FITC/propidium iodide staining-based flow cytometric analysis (reference value: 60.43%); format: functional
[15] = system: NCI-H23; experiment: Induction of apoptosis in human H23 cells under detachment conditions assessed as necrotic cells at 0.5 uM after 24 hrs by Annexin V-FITC/propidium iodide staining-based flow cytometric analysis (reference value: 0.41%); format: functional
[16] = system: NCI-H460; experiment: Antiproliferative activity against human H460 cells under detachment conditions assessed as reduction in cell viability at 0.05 uM after 6 hrs by XTT assay; format: functional, cell-based
[17] = system: NCI-H460; experiment: Induction of apoptosis in human H460 cells under detachment conditions assessed as necrotic cells at 0.5 uM after 24 hrs by Annexin V-FITC/propidium iodide staining-based flow cytometric analysis (reference value: 1.58%); format: functional
[18] = system: NCI-H23; experiment: Induction of apoptosis in human H23 cells under detachment conditions assessed as early apoptotic cells at 0.5 uM after 24 hrs by Annexin V-FITC/propidium iodide staining-based flow cytometric analysis (reference value: 26.81%); format: functional
[19] = system: NCI-H460; experiment: Induction of anoikis in human H460 cells under detachment conditions after 12 hrs by Western blot analysis; format: functional, cell-based
[20] = system: NCI-H23; experiment: Antiproliferative activity against human H23 cells under detachment conditions assessed as reduction in cell viability at 0.05 to 0.5 uM up to 24 hrs by XTT assay; format: functional, cell-based
[21] = system: NCI-H23; experiment: Inhibition of epithelial-mesenchymal transition in human H23 cells harboring with p53 mutant under detachment conditions assessed as decrease in vimentin protein level 0.05 to 0.5 uM after 12 hrs by Western blot analysis; format: functional, cell-based
[22] = system: NCI-H460; experiment: Induction of apoptosis in human H460 cells under detachment conditions assessed as early apoptotic cells at 0.5 uM after 24 hrs by Annexin V-FITC/propidium iodide staining-based flow cytometric analysis (reference value: 22.55%); format: functional
[23] = system: NCI-H23; experiment: Down regulation of caveolin-1 human H23 cells harboring with p53 mutant under detachment conditions at 0.05 to 0.5 uM after 12 hrs by Western blot analysis; format: functional, cell-based
[24] = system: NCI-H460; experiment: Inhibition of epithelial-mesenchymal transition in human H460 cells under detachment conditions assessed as decrease in vimentin protein level 0.05 to 0.5 uM after 12 hrs by Western blot analysis; format: functional, cell-based
[25] = system: NCI-H23; experiment: Antiproliferative activity against human H23 cells assessed as reduction in cell viability at 0.05 to 0.5 uM; format: functional, cell-based
[26] = system: NCI-H292; experiment: Induction of apoptosis in human NCI-H292 cells under detachment conditions assessed as viable cells at 0.5 uM after 24 hrs by Annexin V-FITC/propidium iodide staining-based flow cytometric analysis (reference value: 40.55%); format: functional; details: NCI-H292, 24 h, read-out: Activity
[27] = system: NCI-H460; experiment: Induction of apoptosis in human H460 cells at 0.05 to 0.5 uM after 24 hrs by Hoechst 33342/propidium iodide staining based fluorescent microscopic method; format: functional, cell-based
[28] = target: Serine/threonine-protein kinase AKT (Homo sapiens) (UniProt P31751+Q9Y243+P31749); experiment: Inhibition of AKT phosphorylation in human H23 cells harboring with p53 mutant under detachment conditions at 0.05 to 0.5 uM after 12 hrs by Western blot analysis; format: cell-based
Sequence of Serine/threonine-protein kinase AKT (Homo sapiens) (P31749 whole entry, looked up): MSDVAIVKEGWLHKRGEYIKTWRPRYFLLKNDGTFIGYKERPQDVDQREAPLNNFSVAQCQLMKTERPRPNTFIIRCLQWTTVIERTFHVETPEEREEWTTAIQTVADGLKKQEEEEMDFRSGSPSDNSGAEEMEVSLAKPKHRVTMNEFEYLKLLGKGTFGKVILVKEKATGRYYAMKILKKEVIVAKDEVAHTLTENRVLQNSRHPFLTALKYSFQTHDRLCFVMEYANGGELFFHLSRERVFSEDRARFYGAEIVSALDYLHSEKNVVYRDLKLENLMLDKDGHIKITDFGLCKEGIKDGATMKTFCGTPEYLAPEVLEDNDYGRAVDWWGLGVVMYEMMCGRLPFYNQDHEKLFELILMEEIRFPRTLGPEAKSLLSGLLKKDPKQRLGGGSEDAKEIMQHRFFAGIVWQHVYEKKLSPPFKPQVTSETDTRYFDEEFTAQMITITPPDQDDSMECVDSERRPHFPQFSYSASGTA
Sequence of Serine/threonine-protein kinase AKT (Homo sapiens) (P31751 whole entry, looked up): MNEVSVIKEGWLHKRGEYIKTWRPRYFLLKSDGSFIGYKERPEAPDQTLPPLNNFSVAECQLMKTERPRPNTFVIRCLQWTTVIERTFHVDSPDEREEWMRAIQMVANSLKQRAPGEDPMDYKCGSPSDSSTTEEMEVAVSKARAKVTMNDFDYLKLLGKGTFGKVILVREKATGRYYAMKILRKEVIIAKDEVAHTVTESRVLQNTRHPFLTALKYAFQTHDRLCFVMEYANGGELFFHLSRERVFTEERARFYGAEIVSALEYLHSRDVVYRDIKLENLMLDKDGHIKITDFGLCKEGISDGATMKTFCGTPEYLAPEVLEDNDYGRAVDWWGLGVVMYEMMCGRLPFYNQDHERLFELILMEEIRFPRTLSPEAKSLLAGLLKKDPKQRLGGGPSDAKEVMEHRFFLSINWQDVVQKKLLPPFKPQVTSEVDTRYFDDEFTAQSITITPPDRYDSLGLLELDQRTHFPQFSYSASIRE
Sequence of Serine/threonine-protein kinase AKT (Homo sapiens) (Q9Y243 whole entry, looked up): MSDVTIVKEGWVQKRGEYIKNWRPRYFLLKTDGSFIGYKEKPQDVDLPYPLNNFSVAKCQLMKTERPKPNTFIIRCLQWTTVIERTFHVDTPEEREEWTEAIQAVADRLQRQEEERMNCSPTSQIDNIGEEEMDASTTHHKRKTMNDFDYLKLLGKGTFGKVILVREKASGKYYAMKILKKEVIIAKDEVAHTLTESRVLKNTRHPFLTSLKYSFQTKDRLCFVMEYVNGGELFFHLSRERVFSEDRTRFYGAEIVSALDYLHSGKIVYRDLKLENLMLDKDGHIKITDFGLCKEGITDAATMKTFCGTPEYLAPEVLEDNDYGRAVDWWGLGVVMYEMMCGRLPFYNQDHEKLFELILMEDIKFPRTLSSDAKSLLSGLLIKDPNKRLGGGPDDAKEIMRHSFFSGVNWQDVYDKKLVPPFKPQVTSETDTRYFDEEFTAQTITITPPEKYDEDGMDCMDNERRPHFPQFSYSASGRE

[29] = system: NCI-H292; experiment: Induction of apoptosis in human NCI-H292 cells under detachment conditions assessed as necrotic cells at 0.5 uM after 24 hrs by Annexin V-FITC/propidium iodide staining-based flow cytometric analysis (reference value: 1.28%); format: functional

COC1=C(C)C(=O)C2=C(C1=O)[C@@H]1[C@@H]3CC4=C(C(=O)C(OC)=C(C)C4=O)[C@H](CO)N3[C@@H](C#N)[C@H](C2)N1C [JOURNNAMYCIN A]
Activity [1]: inactive | Activity [2]: Active | Activity [3]: Active | Activity [4]: Active | Activity [5]: 1.39% | inhibition [6]: Active | inhibition [7]: Active | Activity [8]: Active | inhibition [9]: Active | Activity [10]: Non-Toxic | Activity [11]: 48.01% | Activity [12]: Active | Activity [13]: inactive | fold change (FC) [14]: 2 | Activity [15]: 0.49% | Activity [16]: Active | Activity [17]: 24.2% | Activity [18]: 37.79% | Activity [19]: Dose-dependent effect | Activity [20]: Active | inhibition [21]: Active | Activity [22]: 26.4% | Activity [23]: Active | inhibition [24]: Active | Activity [25]: inactive | viability at 0.5 µM [26]: 25.8% | Activity [27]: inactive | inhibition [28]: Active | Activity [29]: 0.4%
